Columns and labels:
[1] = target: T1, Alpha-2A adrenergic receptor (Homo sapiens, UniProt P08913); assay type: cell membranes, Sf9, Membrane; note: in other assays of this panel Not Active means under 50% inhibition at 10 µM
T1 sequence (P08913 whole entry): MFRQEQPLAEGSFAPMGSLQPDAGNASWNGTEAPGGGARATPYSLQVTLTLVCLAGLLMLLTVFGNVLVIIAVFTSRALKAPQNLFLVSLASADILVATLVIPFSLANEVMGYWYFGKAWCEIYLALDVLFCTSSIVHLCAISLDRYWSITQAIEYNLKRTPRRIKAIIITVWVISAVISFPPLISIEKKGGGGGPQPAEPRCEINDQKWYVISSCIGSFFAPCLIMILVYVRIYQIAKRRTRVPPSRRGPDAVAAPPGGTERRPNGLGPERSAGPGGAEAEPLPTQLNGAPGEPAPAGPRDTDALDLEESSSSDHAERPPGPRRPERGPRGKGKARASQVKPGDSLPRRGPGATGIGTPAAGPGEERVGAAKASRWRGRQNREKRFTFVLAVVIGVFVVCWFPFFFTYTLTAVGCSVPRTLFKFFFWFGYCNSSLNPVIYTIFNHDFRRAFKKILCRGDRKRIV

[2] = DRUGMATRIX: Sigma2 radioligand binding (ligand: [3H] Ifenprodil); assay type: cell membranes, Rattus norvegicus, Wistar, Brain, Membrane; details: Not Active = under 50% inhibition at 10 µM
[3] = target: Cannabinoid receptor 1 (Homo sapiens, UniProt P21554); assay type: cell membranes, Membrane; details: chem-1; note: in other assays of this panel Not Active means under 50% inhibition at 10 µM
Sequence of Cannabinoid receptor 1 (P21554 whole entry): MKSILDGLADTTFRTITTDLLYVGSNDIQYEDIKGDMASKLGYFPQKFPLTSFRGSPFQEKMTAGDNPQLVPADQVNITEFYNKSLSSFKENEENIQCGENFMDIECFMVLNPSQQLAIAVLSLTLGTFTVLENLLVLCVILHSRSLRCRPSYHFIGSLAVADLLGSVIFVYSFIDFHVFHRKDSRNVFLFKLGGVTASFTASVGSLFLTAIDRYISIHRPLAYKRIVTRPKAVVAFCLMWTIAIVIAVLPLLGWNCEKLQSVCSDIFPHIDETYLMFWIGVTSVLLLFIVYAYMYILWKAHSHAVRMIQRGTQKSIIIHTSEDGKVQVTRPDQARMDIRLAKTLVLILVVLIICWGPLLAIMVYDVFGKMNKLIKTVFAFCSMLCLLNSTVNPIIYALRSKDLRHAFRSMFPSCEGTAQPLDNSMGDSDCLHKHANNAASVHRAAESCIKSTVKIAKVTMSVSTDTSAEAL

[4] = DRUGMATRIX: Leukotriene, BLT (LTB4) radioligand binding (ligand: [3H]LTB4); assay type: cell membranes, Membrane; details: u-937; Not Active = under 50% inhibition at 10 µM
[5] = target: Protein phosphatase 3 catalytic subunit alpha (Homo sapiens, UniProt Q08209); parameters: species or system Escherichia coli;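 note: inhibition of calcineurin (PP2B) enzyme activity, measured with DiFMUP as the substrate; in other assays of this panel Not Active means under 50% inhibition at 10 µM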
[6] = target: Beta-2 adrenergic receptor (Homo sapiens, UniProt P07550); assay: DRUGMATRIX: Adrenergic beta2 radioligand binding (ligand: [3H] CGP-12177); assay type: cell membranes, Membrane; details: cho; Not Active = under 50% inhibition at 10 µM
Sequence of Beta-2 adrenergic receptor (P07550 whole entry): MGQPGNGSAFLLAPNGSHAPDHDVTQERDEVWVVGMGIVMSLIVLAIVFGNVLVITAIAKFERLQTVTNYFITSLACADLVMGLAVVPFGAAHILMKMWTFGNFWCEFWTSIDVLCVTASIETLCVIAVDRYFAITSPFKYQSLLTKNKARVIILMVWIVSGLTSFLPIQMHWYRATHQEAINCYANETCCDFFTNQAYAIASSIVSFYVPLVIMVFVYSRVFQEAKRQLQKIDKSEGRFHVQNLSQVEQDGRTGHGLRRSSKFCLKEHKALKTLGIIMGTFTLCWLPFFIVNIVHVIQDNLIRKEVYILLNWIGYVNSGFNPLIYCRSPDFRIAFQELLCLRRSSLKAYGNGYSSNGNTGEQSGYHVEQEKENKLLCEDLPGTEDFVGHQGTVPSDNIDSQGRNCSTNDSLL

| SMILES | IC50 ([1]; sf9) | IC50 [2] | Ki [2] | IC50 [3] | IC50 [4] | Ki [4] | IC50 [5] | IC50 [6] | IC50 ([2]; read-out: IC50) | Ki ([2]; read-out: Ki) | IC50 ([1]; read-out: IC50) | Ki ([1]; read-out: Ki) | Ki [5] |
| --- | --- | --- | --- | --- | --- | --- | --- | --- | --- | --- | --- | --- | --- |
| CC(C)(C)NCC(O)c1cc(Cl)c(N)c(Cl)c1 (stereo not given) [CLENBUTEROL] | Not Active | Not Active | Not Active | Not Active | Not Active | Not Active | Not Active | – | – | – | – | – | – |
| CC(O)CO (stereo not given) [PROPYLENE GLYCOL] | Not Active | Not Active | Not Active | Not Active | Not Active | Not Active | Not Active | Not Active | – | – | – | – | – |
| CC1Cc2ccccc2N1NC(=O)c1ccc(Cl)c(S(N)(=O)=O)c1 (stereo not given) [INDAPAMIDE] | Not Active | Not Active | Not Active | Not Active | Not Active | Not Active | Not Active | Not Active | – | – | – | – | – |
| c1ccc(Nc2ccc(Nc3ccccc3)cc2)cc1 | Not Active | Not Active | Not Active | Not Active | Not Active | Not Active | Not Active | Not Active | – | – | – | – | – |
| COc1cc2nc(N3CCN(C(=O)C4COc5ccccc5O4)CC3)nc(N)c2cc1OC (stereo not given) [DOXAZOSIN] | Not Active | Not Active | Not Active | Not Active | Not Active | Not Active | Not Active | – | – | – | – | – | – |
| CCOc1ccc(NC(C)=O)cc1 [PHENACETIN] | Not Active | Not Active | Not Active | Not Active | Not Active | Not Active | Not Active | Not Active | – | – | – | – | – |
| CN(C)CCCN1c2ccccc2Sc2ccc(Cl)cc21 [CHLORPROMAZINE] | – | – | – | Not Active | Not Active | Not Active | Not Active | Not Active | 2.72 µM | 1.67 µM | – | – | – |
| CC(C)[C@H]1C(=O)N2CCC[C@H]2[C@]2(O)O[C@](NC(=O)[C@@H]3C=C4c5cccc6[nH]cc(c56)C[C@H]4N(C)C3)(C(C)C)C(=O)N12 [ERGOCORNINE] | – | Not Active | Not Active | Not Active | Not Active | Not Active | Not Active | Not Active | – | – | 0.0063 µM | 0.00236 µM | – |
| CC(C)(Oc1ccc(Cl)cc1)C(=O)O [CLOFIBRIC ACID] | Not Active | Not Active | Not Active | Not Active | Not Active | Not Active | Not Active | Not Active | – | – | – | – | – |
| CCC(C)n1ncn(-c2ccc(N3CCN(c4ccc(OCC5COC(Cn6cncn6)(c6ccc(Cl)cc6Cl)O5)cc4)CC3)cc2)c1=O (stereo not given) [ITRACONAZOLE] | Not Active | Not Active | Not Active | Not Active | Not Active | Not Active | Not Active | Not Active | – | – | – | – | – |
| O=c1oc2ccccc2c(O)c1Cc1c(O)c2ccccc2oc1=O [DICUMAROL] | Not Active | Not Active | Not Active | Not Active | Not Active | Not Active | Not Active | Not Active | – | – | – | – | – |
| Cc1onc(O)c1CC(N)C(=O)O (racemic) [(R,S)-AMPA] | Not Active | Not Active | Not Active | Not Active | Not Active | Not Active | Not Active | Not Active | – | – | – | – | – |
| CC1=C2C(=CO[C@H](C)[C@H]2C)C(O)=C(C(=O)O)C1=O [CITRININ] | Not Active | Not Active | Not Active | Not Active | Not Active | Not Active | Not Active | Not Active | – | – | – | – | – |
| Nc1nc2c(ncn2COCCO)c(=O)[nH]1 [ACYCLOVIR] | Not Active | Not Active | Not Active | Not Active | Not Active | Not Active | Not Active | Not Active | – | – | – | – | – |
| CCOC(=O)C1=C(COCCN)NC(C)=C(C(=O)OC)C1c1ccccc1Cl (stereo not given) [AMLODIPINE] | – | Not Active | Not Active | Not Active | Not Active | Not Active | Not Active | Not Active | – | – | – | – | – |
| O=C1CC[C@@H](N2C(=O)c3ccccc3C2=O)C(=O)N1 | Not Active | Not Active | Not Active | Not Active | Not Active | Not Active | Not Active | Not Active | – | – | – | – | – |
| Cc1ccc(N(CC2=NCCN2)c2cccc(O)c2)cc1 [PHENTOLAMINE] | – | Not Active | Not Active | Not Active | Not Active | Not Active | Not Active | Not Active | – | – | – | – | – |

| SMILES | IC50 ([1]; sf9) | IC50 [2] | Ki [2] | IC50 [3] | IC50 [4] | Ki [4] | IC50 [5] | IC50 [6] | IC50 ([2]; read-out: IC50) | Ki ([2]; read-out: Ki) | IC50 ([1]; read-out: IC50) | Ki ([1]; read-out: Ki) | Ki [5] |
| --- | --- | --- | --- | --- | --- | --- | --- | --- | --- | --- | --- | --- | --- |
| CC(C)C(Br)C(=O)NC(N)=O (stereo not given) [BROMISOVALUM] | Not Active | Not Active | Not Active | Not Active | Not Active | Not Active | Not Active | Not Active | – | – | – | – | – |
| Cc1ccccc1N1C(=O)c2cc(S(N)(=O)=O)c(Cl)cc2NC1C (stereo not given) [METOLAZONE] | Not Active | Not Active | Not Active | Not Active | Not Active | Not Active | Not Active | Not Active | – | – | – | – | – |
| C1CCC(C(CC2CCCCN2)C2CCCCC2)CC1 (stereo not given) [PERHEXILINE] | Not Active | Not Active | Not Active | Not Active | Not Active | Not Active | Not Active | Not Active | – | – | – | – | – |
| CC(C)CN(C[C@@H](O)[C@H](Cc1ccccc1)NC(=O)O[C@H]1CCOC1)S(=O)(=O)c1ccc(N)cc1 | Not Active | Not Active | Not Active | Not Active | Not Active | Not Active | Not Active | Not Active | – | – | – | – | – |
| Cc1ccc2cc3c(ccc4ccccc43)c3c2c1CC3 [3-METHYLCHOLANTHRENE] | Not Active | Not Active | Not Active | Not Active | Not Active | Not Active | Not Active | Not Active | – | – | – | – | – |
| Nc1nc2c(ncn2CCC(CO)CO)c(=O)[nH]1 [PENCICLOVIR] | Not Active | Not Active | Not Active | Not Active | Not Active | Not Active | Not Active | Not Active | – | – | – | – | – |
| CN(C)C(=O)Oc1cc(OC(=O)N(C)C)cc(C(O)CNC(C)(C)C)c1 (stereo not given) [BAMBUTEROL] | Not Active | Not Active | Not Active | Not Active | Not Active | Not Active | Not Active | Not Active | – | – | – | – | – |
| Nc1nc(N)nc(-c2cc(Cl)ccc2Cl)n1.O=C(O)/C=C\C(=O)O [IRSOGLADINE MALEATE] | Not Active | Not Active | Not Active | Not Active | Not Active | Not Active | Not Active | Not Active | – | – | – | – | – |
| Cc1ccc(-c2cc(C(F)(F)F)nn2-c2ccc(S(N)(=O)=O)cc2)cc1 [CELECOXIB] | Not Active | Not Active | Not Active | Not Active | Not Active | Not Active | Not Active | Not Active | – | – | – | – | – |
| CCC1(c2ccc(N)cc2)CCC(=O)NC1=O (stereo not given) [AMINOGLUTETHIMIDE] | Not Active | Not Active | Not Active | Not Active | Not Active | Not Active | – | Not Active | – | – | – | – | Not Active |
| Cc1ccc(/N=C/N(C)/C=N/c2ccc(C)cc2C)c(C)c1 [AMITRAZ] | – | Not Active | Not Active | Not Active | Not Active | Not Active | Not Active | Not Active | – | – | – | – | – |
| C[C@H](CS)C(=O)N1CCC[C@H]1C(=O)O [CAPTOPRIL] | Not Active | Not Active | Not Active | Not Active | Not Active | Not Active | Not Active | Not Active | – | – | – | – | – |
| Clc1cccc(Cl)c1NC1=NCCN1 [CLONIDINE] | – | Not Active | Not Active | Not Active | Not Active | Not Active | Not Active | Not Active | – | – | – | – | – |
| CNCCCN1c2ccccc2CCc2ccccc21 [DESIPRAMINE] | Not Active | Not Active | Not Active | Not Active | Not Active | Not Active | Not Active | – | – | – | – | – | – |
| CCCN1C[C@H](CSC)C[C@@H]2c3cccc4[nH]cc(c34)C[C@H]21 [PERGOLIDE] | – | Not Active | Not Active | Not Active | Not Active | Not Active | Not Active | Not Active | – | – | – | – | – |
| COCCc1ccc(OCC(O)CNC(C)C)cc1 (stereo not given) [METOPROLOL] | Not Active | Not Active | Not Active | Not Active | Not Active | Not Active | Not Active | – | – | – | – | – | – |

Reference: ChEMBL document CHEMBL1909046, “DrugMatrix in vitro pharmacology data”
